Assay: xn = mol fraction of the nth substance listed
Conditions: 101 kPa

CN(C)C=O + CC[n+]1ccn(C)c1.F[B-](F)(F)F
x1 = 1
Conditions | speed of sound [m/s]
293.15 K | 1477.8
303.15 K | 1440.3
308.15 K | 1421

CNC=O + CC[n+]1ccn(C)c1.F[B-](F)(F)F
speed of sound [m/s]
Conditions | 293.15 K | 298.15 K | 303.15 K | 308.15 K
x1 = 0.0661 | 1633.3 | – | – | –
x1 = 0.0886 | 1633.3 | 1622.4 | 1611.3 | 1600.3
x1 = 0.1287 | 1633 | 1622.1 | 1610.8 | –
x1 = 0.1757 | 1631.7 | 1619.5 | 1607.8 | 1596.1
x1 = 0.2258 | 1628 | 1615.8 | 1603.3 | 1590.7
x1 = 0.2783 | 1622.6 | 1609 | 1595.9 | 1583.5
x1 = 0.3287 | – | 1601.7 | – | –
x1 = 0.3729 | 1608.1 | 1593 | – | –
x1 = 0.4259 | 1597.9 | 1582.3 | 1567.3 | 1552.1
x1 = 0.4766 | 1585.5 | 1569.5 | 1554.2 | 1539.1
x1 = 0.5291 | 1572.2 | – | 1540.2 | 1524.6
x1 = 0.5749 | 1559.2 | 1543.2 | – | 1511.9
x1 = 0.6252 | 1543.5 | 1527.8 | 1513 | 1496.9
x1 = 0.6773 | – | 1511.9 | 1496.9 | 1480.7
x1 = 0.7281 | 1511.5 | – | 1482 | –
x1 = 0.7744 | 1496.7 | – | 1467.9 | 1452.1
x1 = 0.8271 | 1481.1 | – | 1453 | 1437
x1 = 0.8782 | 1467.7 | 1453.9 | – | –
x1 = 1 | – | 1431.9 | 1417.7 | –

CC[n+]1ccn(C)c1.F[B-](F)(F)F + CN(C)C=O
speed of sound [m/s]
Conditions | 293.15 K | 298.15 K | 303.15 K | 308.15 K
x2 = 0 | 1631 | 1619.4 | 1607.6 | –
x2 = 0.0903 | 1625.1 | 1611.5 | 1598 | 1586
x2 = 0.1257 | – | 1609.6 | 1596 | 1583.1
x2 = 0.1717 | 1622.4 | – | 1594 | –
x2 = 0.2275 | 1621.4 | 1606.7 | 1591.9 | 1577.6
x2 = 0.2781 | 1620.2 | – | 1590.4 | 1574.8
x2 = 0.3276 | 1618.1 | 1603.9 | 1589.2 | 1572.2
x2 = 0.3781 | 1615.6 | 1601 | 1586.1 | 1569.6
x2 = 0.4227 | 1612.9 | 1598.5 | 1583.6 | 1565.4
x2 = 0.4757 | 1607.8 | – | 1577.9 | 1560.5
x2 = 0.5258 | – | 1586.4 | 1571.3 | 1553.1
x2 = 0.5697 | 1593.8 | 1579.9 | – | –
x2 = 0.6261 | 1582.9 | 1568.1 | 1552.6 | 1534.5
x2 = 0.6758 | – | – | 1541.3 | 1523.2
x2 = 0.7291 | 1558.1 | – | 1526.5 | 1508.1
x2 = 0.769 | 1546.4 | – | 1513.9 | 1496.7
x2 = 0.8268 | 1529.4 | 1512.2 | 1495.4 | 1478
x2 = 0.8789 | – | 1495.6 | 1478.4 | 1460.1

CC[n+]1ccn(C)c1.F[B-](F)(F)F + CNC=O
x2 = 0
Conditions | speed of sound [m/s]
293.15 K | 1631
298.15 K | 1619.4
303.15 K | 1607.6
308.15 K | 1596.3

From a compilation of properties of binary mixtures (doi:10.1007/s10953-013-9991-z)
